Measured values taken from patent publication US20110245537A1, “L-carnitine calcium fumarate, preparation method and application for the same” (Liaoning Konepnutra Co., Ltd, priority 2009, published 2011).

Assays:
[1] = hygroscopicity: caking or sticking on exposure to air; assay type: physicochemical; conditions: 25° C., relative humidity of 60±5%, 24 hours exposure to air
Description: The obtained L-carnitine calcium fumarate is in uniform powder form with good fluidity, more than 98% of which is smaller than 40 mesh size. […] The product has a calcium content of 6.76% with good non-hygrosopicity.
The obtained L-carnitine calcium fumarate is in uniform powder form and has good fluidity, greater than 98% of which is smaller than 40 mesh in granular size. […] The product has a calcium content of 9.28%, with better non-hygrosopicity.

[2] = cited from earlier work

L-Carnitine Calcium Fumarate (1:2:1) [Example 2]
caking or sticking phenomena (non-hygroscopicity) [1]: no caking or sticking phenomena

C[N+](C)(C)C[C@H](O)CC(=O)[O-].O=C(O)C(O)C(O)C(=O)O [L-carnitine tartrate, L-carnitine L-tartrate]
relative humidity at which the salt will deliquesce [2]: over 60%

L-Carnitine Calcium Fumarate (2:2:1) [Example 1]
caking or sticking phenomena (non-hygroscopicity) [1]: no caking or sticking phenomena
